Source: patent US11124516B2, “Pyrrolo[1,2-A]pyrimidinyl carboxamide compounds and their use in the treatment of medical disorders” (Bial—Biotech Investments, Inc., priority 2016, dated 2021)

Target: T1, glucocerebrosidase (Gcase) (Homo sapiens, UniProt P04062)
T1 sequence (P04062 40-536): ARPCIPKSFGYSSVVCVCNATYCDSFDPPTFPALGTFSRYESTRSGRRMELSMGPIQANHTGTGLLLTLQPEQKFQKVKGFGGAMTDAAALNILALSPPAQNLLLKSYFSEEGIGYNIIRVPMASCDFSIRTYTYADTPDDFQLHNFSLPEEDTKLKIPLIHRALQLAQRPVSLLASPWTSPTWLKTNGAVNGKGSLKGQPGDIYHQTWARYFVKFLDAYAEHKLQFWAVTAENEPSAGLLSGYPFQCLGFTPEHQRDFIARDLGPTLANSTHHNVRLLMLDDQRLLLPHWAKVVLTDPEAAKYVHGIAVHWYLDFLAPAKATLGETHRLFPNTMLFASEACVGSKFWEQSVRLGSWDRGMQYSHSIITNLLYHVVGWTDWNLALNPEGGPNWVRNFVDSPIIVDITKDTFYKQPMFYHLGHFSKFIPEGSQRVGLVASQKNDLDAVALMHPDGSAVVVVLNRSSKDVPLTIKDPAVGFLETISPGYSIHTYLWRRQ
Test: Glucocerebrosidase (Gcase) activation assay, 4-methylumbelliferyl-beta-D-glucopyranoside substrate, fluorescence
Format: biochemical
Conditions: 10 nM GCase, 100 nM saposin C; for activation at 0.1 µM / activation at 1 µM: 0.25 h; for activation at 0.1 µM: pH 4.7, test compound at 0.1 μM, read-out: Percent Gcase Activation 0.1 μM Test Compound; for activation at 1 µM: pH 4.7, test compound at 1.0 μM, read-out: Percent Gcase Activation 1 μM Test Compound; for Percent Gcase Activation 1 μM Test Compound: test compound at 1.0 μM; for Percent Gcase Activation 1 μM Test Compound / Percent Gcase Activation 0.1 μM Test Compound: pH 4.7; for Percent Gcase Activation 0.1 μM Test Compound: test compound at 0.1 μM
Method: The ability of exemplary compounds to activate glucocerebrosidase (Gcase) was measured.
A 484 μL aliquot of a 1.0 mg/mL solution of phosphatidylserine (PS) (Sigma P7769) in chloroform was evaporated under a stream of nitrogen for 1 hour. The lipid film was dissolved over 4 minutes of vigorous vortexing in 40 mL of 176 mM K2HPO4/50 mM citric acid (pH 4.7) containing 7.5 μL of triton X-100, resulting in a mixed micellar preparation with a composition of 0.32 mM triton and 0.37 mol % PS. 4-Methylumbelliferyl-beta-D-glucopyranoside (ACROS-337025000) was dissolved in the micellar solution to a final concentration of 2 mM for use as the reaction substrate.
Test compounds were diluted to the desired concentrations with dimethylsulfoxide (DMSO) from 10 mM stocks, and 0.41 μL of the DMSO compound mixture was added to 100 μL of micellar solution containing 10 nM GCase and 100 nM saposin C (Enzo ALX-201-262-C050). Pre-incubation was allowed to occur for 30 minutes at room temperature, after which the reaction was initiated by combining 25 μL of substrate solution with 25 μL of compound/GCase/saposin mixture. The reaction proceeded for 15 minutes at room temperature and was stopped by adding 150 μL of 1M glycine, pH 12.5. The endpoint of the reaction was monitored by measuring fluorescence intensity (excitation: 365 nm; emission: 440 nm) on a SpectraMax i3 instrument (Molecular Devices). Test compounds were screened at 1.0 and 0.1 μM final concentration, and subsequent 8-point dose response curves were obtained using 3-fold dilutions from a maximum final concentration of 5 μM.
For experiments in which the test compound was used at a concentration of 1.0 μM, the symbol “+” indicates less than 30% Gcase activation; the symbol “++” indicates Gcase activation in the range of 30% up to 60%; and the symbol “+++” indicates Gcase activation greater than 60%. For experiments in which the test compound was used at a concentration of 0.1 μM, the symbol “*” indicates less than 10% Gcase activation; the symbol “**” indicates Gcase activation in the range of 10% up to 20%; and the symbol “***” indicates greater than 20% Gcase activation.

Row | SMILES | activation at 0.1 µM [%] | activation at 1 µM [%] | Percent Gcase Activation 1 μM Test Compound | Percent Gcase Activation 0.1 μM Test Compound
1 | CCC(=O)Nc1ccc(C(C)NC(=O)c2ccn3c(C)cc(C)nc23)cc1 (stereo not drawn) [IV-98] | > 20 | > 60 | – | –
2 | Cc1cc(C)n2ccc(C(=O)N[C@@H](C)c3nc4ccccc4n3C)c2n1 [IV-37] | < 10 | < 30 | – | –
3 | Cc1cc(C)n2ccc(C(=O)NC(C)C3COc4ccccc4O3)c2n1 (stereo not drawn) [IV-82] | < 10 | – | +++ (Gcase activation greater than 60%) | –
4 | Cc1cn2ccc(C(=O)NC(C)(C)C3CC3)c2nc1-c1ccc(F)cc1 [III-50] | < 10 | > 60 | – | –
5 | Cc1cc(C)n2ccc(C(=O)NC(C)c3ccc(-c4ccccc4)cc3)c2n1 (stereo not drawn) [IV-77] | > 20 | > 60 | – | –
6 | Cc1cc(C)n2ccc(C(=O)NC(C)c3nnn(C4CC4)n3)c2n1 (stereo not drawn) [IV-76] | < 10 | < 30 | – | –
7 | Cc1cc(C)n2ccc(C(=O)NC(C)C3COc4ccccc4O3)c2n1 (stereo not drawn) [IV-36] | – | – | + (less than 30% Gcase activation) | * (less than 10% Gcase activation)
8 | Cc1cc(C)n2ccc(C(=O)NC(C)c3ccccc3-n3cccn3)c2n1 (stereo not drawn) [IV-67] | < 10 | 30 to 60 | – | –
9 | Cc1cc(C)n2ccc(C(=O)NC(CO)c3ccc4ccccc4c3)c2n1 (stereo not drawn) [IV-90] | < 10 | < 30 | – | –
10 | CCC(NC(=O)c1ccn2c(C)cc(C)nc12)c1ccc(OC)cc1 (stereo not drawn) [IV-83] | > 20 | > 60 | – | –
11 | Cc1cc(-c2ncccn2)nc2c(C(=O)NC(C)(C)C3CC3)ccn12 [III-43] | 10 to 20 | > 60 | – | –
12 | Cc1cc(C)n2ccc(C(=O)NC(CO)c3ccc(C(C)C)cc3)c2n1 (stereo not drawn) [IV-93] | < 10 | < 30 | – | –
13 | CCC(NC(=O)c1ccn2c(C)cc(C)nc12)c1cccc(Cl)c1 (stereo not drawn) [IV-105] | > 20 | > 60 | – | –
14 | Cc1cc(C)n2ccc(C(=O)NC(C)c3nnn(-c4ccccc4)n3)c2n1 (stereo not drawn) [IV-80] | < 10 | < 30 | – | –
15 | Cc1cc(C)n2ccc(C(=O)NC(C)C3CCCCC3)c2n1 (stereo not drawn) [III-67] | – | – | +++ (Gcase activation greater than 60%) | *** (greater than 20% Gcase activation)
16 | Cc1cc(C)n2ccc(C(=O)NC(C)c3nc4ccccc4n3C)c2n1 (stereo not drawn) [IV-85] | < 10 | < 30 | – | –
17 | Cc1cc(C)n2ccc(C(=O)N[C@@H](C)c3cccc4c3CCCC4)c2n1 [IV-99] | > 20 | > 60 | – | –
18 | CCC(NC(=O)c1ccn2c(C)cc(C)nc12)c1nc2ccccc2[nH]1 (stereo not drawn) [IV-86] | < 10 | < 30 | – | –
19 | CCOc1ccc(C(C)NC(=O)c2ccn3c(C)cc(C)nc23)cc1 (stereo not drawn) [IV-88] | > 20 | > 60 | – | –
20 | Cc1cc(C)n2ccc(C(=O)NC(C)C3CCCC3)c2n1 (stereo not drawn) [III-69] | 10 to 20 | > 60 | – | –
21 | CCn1c(C(C)NC(=O)c2ccn3c(C)cc(C)nc23)nc2c1CCCC2 (stereo not drawn) [IV-106] | < 10 | < 30 | – | –
22 | COc1ccccc1C(C)NC(=O)c1ccn2c(C)cc(C)nc12 (stereo not drawn) [IV-60] | > 20 | > 60 | – | –
23 | Cc1cc(C)n2ccc(C(=O)N[C@H](C)c3cccc4c3CCCC4)c2n1 [IV-95] | 10 to 20 | > 60 | – | –
24 | Cc1cc(C)n2ccc(C(=O)NC(C)c3ccccc3-c3ccccc3)c2n1 (stereo not drawn) [IV-70] | < 10 | > 60 | – | –
25 | CCc1ccc([C@@H](C)NC(=O)c2ccn3c(C)cc(C)nc23)cc1 [IV-100] | 10 to 20 | > 60 | – | –
26 | Cc1cc(C)n2ccc(C(=O)NC(C)c3nc(C4CCCCC4)no3)c2n1 (stereo not drawn) [IV-69] | 10 to 20 | > 60 | – | –

Row | SMILES | activation at 0.1 µM [%] | activation at 1 µM [%] | Percent Gcase Activation 1 μM Test Compound | Percent Gcase Activation 0.1 μM Test Compound
27 | CCC(CO)(NC(=O)c1ccn2c(C)cc(C)nc12)c1ccccc1 (stereo not drawn) [IV-101] | < 10 | 30 to 60 | – | –
28 | CCCCO[C@H]1CC[C@H](NC(=O)c2ccn3c(C)cc(C4CCOCC4)nc23)CC1 [III-32] | < 10 | 30 to 60 | – | –
29 | Cc1cc(C)n2ccc(C(=O)NC(CO)C34CC5CC(CC(C5)C3)C4)c2n1 (stereo not drawn) [IV-34] | < 10 | 30 to 60 | – | –
30 | Cc1ccc(C(CO)NC(=O)c2ccn3c(C)cc(C)nc23)c(C)c1 (stereo not drawn) [IV-91] | < 10 | < 30 | – | –
31 | Cc1cc(C)n2ccc(C(=O)NC(C)c3ccc(F)c(C)c3)c2n1 (stereo not drawn) [IV-107] | 10 to 20 | > 60 | – | –
32 | Cc1cc(C)n2ccc(C(=O)NC(C)c3ccc(C)c(F)c3)c2n1 (stereo not drawn) [IV-104] | > 20 | > 60 | – | –
33 | Cc1cc(C)n2ccc(C(=O)NC(C)c3ccc(-c4cccnc4)cc3)c2n1 (stereo not drawn) [IV-43] | < 10 | 30 to 60 | – | –
34 | Cc1cc(C)n2ccc(C(=O)NC(Cc3ccccc3)c3ccccc3)c2n1 (stereo not drawn) [IV-81] | > 20 | > 60 | – | –
35 | Cc1cc(C)n2ccc(C(=O)NC(C)c3cccc(-n4cccn4)c3)c2n1 (stereo not drawn) [IV-75] | 10 to 20 | > 60 | – | –
36 | Cc1cc(C)n2ccc(C(=O)NC(C)C34CC5CC(C3)C(C5)C4)c2n1 (stereo not drawn) [IV-89] | > 20 | > 60 | – | –
37 | Cc1cc(C)n2ccc(C(=O)NC(CO)c3cccc(C)c3C)c2n1 (stereo not drawn) [IV-92] | < 10 | < 30 | – | –
38 | Cc1cc(C)n2ccc(C(=O)NC(C)c3cccc(N4CCCC4)c3)c2n1 (stereo not drawn) [IV-102] | < 10 | > 60 | – | –
39 | Cc1cc(C)n2ccc(C(=O)N[C@H](C)c3ccc4c(c3)OCO4)c2n1 [IV-84] | 10 to 20 | > 60 | – | –
40 | Cc1cc(C)n2ccc(C(=O)N[C@H](C)c3ccc(F)cc3)c2n1 [IV-97] | 10 to 20 | > 60 | – | –
41 | COc1ccc(F)cc1C(C)NC(=O)c1ccn2c(C)cc(C)nc12 (stereo not drawn) [IV-74] | > 20 | > 60 | – | –
42 | COCC(C)(NC(=O)c1ccn2c(C)cc(C)nc12)c1ccccc1 (stereo not drawn) [III-68] | < 10 | > 60 | – | –
43 | CCC(NC(=O)c1ccn2c(C)cc(C)nc12)C12CC3CC(C1)C(C3)C2 (stereo not drawn) [IV-72] | > 20 | > 60 | – | –
44 | Cc1cc(C)n2ccc(C(=O)NC(C)(C)c3ccc(F)cc3)c2n1 [IV-103] | > 20 | > 60 | – | –
45 | Cc1cc(C)n2ccc(C(=O)NC(C)c3ncc(-c4ccccc4)o3)c2n1 (stereo not drawn) [IV-65] | 10 to 20 | > 60 | – | –
46 | Cc1cc(C)n2ccc(C(=O)NC(C)c3ccccc3F)c2n1 (stereo not drawn) [IV-108] | 10 to 20 | > 60 | – | –
47 | COCc1cc(C(F)F)n2ccc(C(=O)NC3(c4cc(F)cc(F)c4)CC3)c2n1 [III-9] | < 10 | < 30 | – | –
48 | Cc1cc(C)n2ccc(C(=O)NC(C)c3ccc(-n4cccn4)cc3)c2n1 (stereo not drawn) [IV-68] | 10 to 20 | > 60 | – | –
49 | Cc1cc(C)n2ccc(C(=O)NC(C)C3Oc4ccccc4C3C)c2n1 (stereo not drawn) [IV-87] | 10 to 20 | > 60 | – | –
50 | Cc1cc(C)n2ccc(C(=O)NC(C)c3ccccc3C)c2n1 (stereo not drawn) [IV-63] | > 20 | > 60 | – | –
51 | COCC(NC(=O)c1ccn2c(C)cc(C)nc12)C1CC1 (stereo not drawn) [III-66] | < 10 | < 30 | – | –
